# Assay results taken from BindingDB's records for doi:10.7270/Q2125R3Z (Burnham Center For Chemical Genomics, 2010).
# Target: Delta-type opioid receptor (Homo sapiens, UniProt P41143)
# Assay: DOR agonists, SAR follow-up, image-based (AID 2370)
# Delta-type opioid receptor, sequence (P41143 whole entry): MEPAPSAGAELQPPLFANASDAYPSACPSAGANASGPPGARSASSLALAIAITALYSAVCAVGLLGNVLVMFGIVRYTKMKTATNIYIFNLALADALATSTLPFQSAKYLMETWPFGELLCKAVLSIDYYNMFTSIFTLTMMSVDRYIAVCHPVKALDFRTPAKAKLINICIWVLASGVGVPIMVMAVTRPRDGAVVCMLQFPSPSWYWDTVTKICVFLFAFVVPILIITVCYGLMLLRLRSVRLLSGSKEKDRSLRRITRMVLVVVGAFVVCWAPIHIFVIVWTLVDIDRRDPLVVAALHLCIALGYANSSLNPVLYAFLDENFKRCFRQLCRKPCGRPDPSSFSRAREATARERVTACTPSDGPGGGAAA
row,EC50,Structure (SMILES)
1,30.7 µM,"CCC(N=Nc1ccnc2cc(Cl)ccc12)c1ccc(O)cc1 (configuration not stated) [4-[1-[2-(7-chloroquinolin-4-yl)hydrazinyl]propylidene]cyclohexa-2,5-dien-1-one]"
2,> 32 µM,"Oc1ccc(CN=Nc2ccnc3cc(Cl)ccc23)cc1O [(4Z)-4-[[2-(7-chloroquinolin-4-yl)hydrazinyl]methylidene]-2-hydroxycyclohexa-2,5-dien-1-one]"
